From ChEMBL document CHEMBL3132815, “Design, synthesis and activities of 4/5-acyl-2-aminoimidazolyl analogues of oroidin for biofilm inhibition” (Medchemcomm, 2013)
In brackets after ≈: the same amount, converted by molar mass.

Assays:
[1] = Cytotoxicity against human HeLa cells; type: cell-based
Pseudomonas aeruginosa [2] = experiment: Antibiofilm activity against Pseudomonas aeruginosa PAO1 assessed as inhibition of biofilm formation; type: functional, organism-based
Pseudomonas aeruginosa [3] = experiment: Antibacterial activity against Pseudomonas aeruginosa PAO1 assessed as planktonic growth; type: organism-based
Staphylococcus aureus [4] = experiment: Antibiofilm activity against methicillin-resistant Staphylococcus aureus 1094 assessed as inhibition of biofilm formation; type: functional
Staphylococcus aureus [5] = experiment: Antibacterial activity against Staphylococcus aureus ATCC 35556 assessed as planktonic growth; type: organism-based
Staphylococcus aureus [6] = experiment: Antibiofilm activity against Staphylococcus aureus ATCC 35556 assessed as inhibition of biofilm formation; type: functional
[7] = system: Staphylococcus epidermidis; experiment: Antibiofilm activity against Staphylococcus epidermidis 1457 assessed as inhibition of biofilm formation; type: functional
[8] = system: Staphylococcus epidermidis; experiment: Antibacterial activity against Staphylococcus epidermidis 1457 assessed as planktonic growth; type: organism-based
[9] = system: Staphylococcus epidermidis; experiment: Antibiofilm activity against Staphylococcus epidermidis GTC 18972 assessed as inhibition of biofilm formation; type: functional
Pseudomonas aeruginosa [10] = experiment: Antibiofilm activity against Pseudomonas aeruginosa PAO1 assessed as inhibition of biofilm formation at 50 ug/ml; type: functional
Pseudomonas aeruginosa [11] = experiment: Antibacterial activity against Pseudomonas aeruginosa PAO1 assessed as planktonic growth at 50 ug/ml; type: organism-based
Staphylococcus aureus [12] = experiment: Antibiofilm activity against methicillin-resistant Staphylococcus aureus 1094 assessed as inhibition of biofilm formation at 50 ug/ml; type: functional
Staphylococcus aureus [13] = experiment: Antibacterial activity against methicillin-resistant Staphylococcus aureus 1094 assessed as planktonic growth at 50 ug/ml; type: organism-based
Staphylococcus aureus [14] = experiment: Antibiofilm activity against methicillin-resistant Staphylococcus aureus assessed as inhibition of biofilm formation at 50 ug/ml; type: functional
Staphylococcus aureus [15] = experiment: Antibacterial activity against methicillin-resistant Staphylococcus aureus assessed as planktonic growth at 50 ug/ml; type: organism-based; conditions: in vitro
Staphylococcus aureus [16] = experiment: Antibiofilm activity against Staphylococcus aureus ATCC 35556 assessed as inhibition of biofilm formation at 50 ug/ml; type: functional
Staphylococcus aureus [17] = experiment: Antibacterial activity against Staphylococcus aureus ATCC 35556 assessed as planktonic growth at 50 ug/ml; type: organism-based
[18] = system: Staphylococcus epidermidis; experiment: Antibiofilm activity against Staphylococcus epidermidis 1457 assessed as inhibition of biofilm formation at 50 ug/ml; type: functional
[19] = system: Staphylococcus epidermidis; experiment: Antibacterial activity against Staphylococcus epidermidis 1457 assessed as planktonic growth at 50 ug/ml; type: organism-based
[20] = system: Staphylococcus epidermidis; experiment: Antibiofilm activity against Staphylococcus epidermidis GTC 18972 assessed as inhibition of biofilm formation at 50 ug/ml; type: functional
[21] = system: Staphylococcus epidermidis; experiment: Antibacterial activity against Staphylococcus epidermidis GTC 18972 assessed as planktonic growth at 50 ug/ml; type: organism-based
[22] = system: Staphylococcus epidermidis; experiment: Antibacterial activity against Staphylococcus epidermidis GTC 18972 assessed as planktonic growth; type: organism-based
Staphylococcus aureus [23] = experiment: Antibiofilm activity against Staphylococcus aureus assessed as inhibition of biofilm formation; type: functional, organism-based

Row | SMILES | CC50 [1] [µg/mL] | MBIC (Pseudomonas aeruginosa [2]) | MIC (Pseudomonas aeruginosa [3]) | MIC (Staphylococcus aureus [5]) [µg/mL] | MBIC (Staphylococcus aureus [6]) [µg/mL] | MBIC [7] [µg/mL] | MIC [8] [µg/mL] | MBIC [9] [µg/mL] | inhibition at 50 µg/mL (Pseudomonas aeruginosa [10]) [%] | Activity (Pseudomonas aeruginosa [11]) [%] | inhibition at 50 µg/mL (Staphylococcus aureus [12]) [%] | Activity (Staphylococcus aureus [13]) [%] | inhibition at 50 µg/mL (Staphylococcus aureus [14]) [%] | Activity (Staphylococcus aureus [15]) [%] | inhibition at 50 µg/mL (Staphylococcus aureus [16]) [%] | Activity (Staphylococcus aureus [17]) [%] | inhibition at 50 µg/mL [18] [%] | Activity [19] [%] | inhibition at 50 µg/mL [20] [%] | Activity [21] [%] | further results
1 | Nc1ncc(C(=O)CCNC(=O)c2ccc[nH]2)[nH]1 | 101 (≈ 410 µM) | 50 µg/mL | 50 µg/mL (≈ 202 µM) | 25 (≈ 101 µM) | 6.25 | 6.25 | 12.5 (≈ 50.6 µM) | 6.25 | 92 | 86.17 | 86.2 | 86.98 | 88.4 | 85.37 | 98.1 | 79.94 | 98 | 81.58 | 97.8 | 81.99 | MBIC (Staphylococcus aureus [4]): 12.5 µg/mL; MIC [22]: 12.5 µg/mL (≈ 50.6 µM)
2 | Nc1ncc(C(=O)CCNC(=O)c2cc(Br)c[nH]2)[nH]1 | 86.4 (≈ 265 µM) | >=100 ug ml-1 | >= 100 ug ml-1 | 50 (≈ 153 µM) | 50 | 25 | 50 (≈ 153 µM) | 25 | 29.6 | 32.69 | 85.5 | 88.88 | 88.8 | 88.41 | 98 | 81.24 | 98 | 85.98 | 97.8 | 86.77 | MIC [22]: 25 µg/mL (≈ 76.7 µM)
3 | Nc1ncc(/C=C/CNC(=O)c2cc(Br)c(Br)[nH]2)[nH]1 [OROIDIN] |  |  |  |  |  |  |  |  |  |  |  |  |  |  |  |  |  |  |  |  | IC50 (Staphylococcus aureus [23]): 166 µM
